Measured values: patent US20250223268A1, “4-Methylsulfonylbenzamide Compound, Preparation Method, Herbicidal Composition And Use” (Jiangsu Flag Chemical Industry Co., Ltd., priority 2022, published 2025)

Legend:
Format in all cases: in vivo
Echinochloa crusgalli [1] = assay: Greenhouse herbicidal activity and crop safety comparison (Test Example 2); conditions: for inhibition at 75 g/ha / inhibition at 150 g/ha: Echinochloa crus-galli, read-out: Echinochloa crusgalli, control efficacy grading (fresh weight inhibition rate)
Summary of the method: (§1)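 Fresh weight inhibition, banded into grades A to E (E <20%), was rated 14-21 days after foliar spraying of 3-6 leaf plants, or 14-30 days after a soil spray applied 24 h post-sowing.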

Digitaria sanguinalis [2] = assay: as above; conditions: for inhibition at 75 g/ha / inhibition at 150 g/ha: Digitaria sanguinalis, read-out: Digitaria sanguinalis, control efficacy grading (fresh weight inhibition rate)
Summary of the method: as §1

[3] = system: Oryza sativa subsp. indica; assay: as above
Summary of the method: as §1

[4] = system: Oryza sativa subsp. japonica; assay: as above
Summary of the method: as §1

Zea mays = assay: as above
Summary of the method: as §1

Echinochloa crusgalli [5] = assay: Greenhouse herbicidal activity assay, post-emergence; conditions: Post-emergence test, rate 150 g a.i./hm^2, grade by fresh weight inhibition rate; for pest or weed control at 150 g/ha: Echinochloa crus-galli, read-out: Control efficacy grade, Echinochloa crusgalli
Summary of the method: (§2)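 Graded A (≥80%) to E (<20%) by fresh weight inhibition, read 14-21 days after spraying. Plants were pot-grown in a growth chamber and received foliar application at the 3-6 leaf stage, being air-dried and returned to the chamber afterwards.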

Digitaria sanguinalis [6] = assay: as above; conditions: Post-emergence test, rate 150 g a.i./hm^2, grade by fresh weight inhibition rate; for pest or weed control at 150 g/ha: Digitaria sanguinalis, read-out: Control efficacy grade, Digitaria sanguinalis
Summary of the method: as §2

Eclipta prostrata = assay: as above; conditions: Post-emergence test, rate 150 g a.i./hm^2, grade by fresh weight inhibition rate; for pest or weed control at 150 g/ha: Eclipta prostrata, read-out: Control efficacy grade, Eclipta prostrata
Summary of the method: as §2

Cyperus iria = assay: as above; conditions: Post-emergence test, rate 150 g a.i./hm^2, grade by fresh weight inhibition rate; for pest or weed control at 150 g/ha: Cyperus iria, read-out: Control efficacy grade, Cyperus iria
Summary of the method: as §2

Leptochloa chinensis = assay: as above; conditions: Post-emergence test, rate 150 g a.i./hm^2, grade by fresh weight inhibition rate; for pest or weed control at 150 g/ha: Dinebra chinensis, read-out: Control efficacy grade, Leptochloa chinensis
Summary of the method: as §2

| Structure (SMILES) | inhibition at 75 g/ha (Echinochloa crusgalli [1]; Rate 75 g/ha) | inhibition at 75 g/ha (Digitaria sanguinalis [2]; Rate 75 g/ha) | inhibition at 150 g/ha (Digitaria sanguinalis [2]; Rate 150 g/ha) | Oryza sativa subsp. indica, grading of fresh weight inhibition rate (crop safety) ([3]; Rate 75 g/ha) | Oryza sativa subsp. indica, grading of fresh weight inhibition rate (crop safety) ([3]; Rate 150 g/ha) | Oryza sativa subsp. japonica, grading of fresh weight inhibition rate (crop safety) ([4]; Rate 75 g/ha) | Oryza sativa subsp. japonica, grading of fresh weight inhibition rate (crop safety) ([4]; Rate 150 g/ha) | Zea mays, grading of fresh weight inhibition rate (crop safety) (Zea mays; Rate 75 g/ha) | Zea mays, grading of fresh weight inhibition rate (crop safety) (Zea mays; Rate 150 g/ha) | Digitaria sanguinalis, control efficacy grading (fresh weight inhibition rate) (Digitaria sanguinalis [2]; Rate 150 g/ha) | Zea mays, grading of fresh weight inhibition rate (crop safety) (Zea mays; Rate 18.75 g/ha) | Control efficacy grade, Echinochloa crusgalli (Echinochloa crusgalli [5]) | Control efficacy grade, Digitaria sanguinalis (Digitaria sanguinalis [6]) | Control efficacy grade, Eclipta prostrata (Eclipta prostrata) | Control efficacy grade, Cyperus iria (Cyperus iria) | Control efficacy grade, Leptochloa chinensis (Leptochloa chinensis) | further results |
| --- | --- | --- | --- | --- | --- | --- | --- | --- | --- | --- | --- | --- | --- | --- | --- | --- | --- |
| Cn1ncnc1NC(=O)c1ccc(S(C)(=O)=O)c(S(C)(=O)=O)c1Cl [CK3, reference compound] | 40 to 60% | < 20% | 20 to 40% | D (Fresh weight inhibition rate≥20% to <40%) | B (Fresh weight inhibition rate≥260% to <80%) | D (Fresh weight inhibition rate≥20% to <40%) | C (Fresh weight inhibition rate≥40% to <60%) | E (Fresh weight inhibition rate<20%) | D (Fresh weight inhibition rate≥20% to <40%) |  |  |  |  |  |  |  | inhibition at 150 g/ha (Echinochloa crusgalli [1]; Rate 150 g/ha): 80 to 100% |
| CCC[S+]([O-])c1c(S(C)(=O)=O)ccc(C(=O)Nc2nonc2C)c1Cl (single isomer, unassigned) [Compound 4-4] |  |  |  |  |  |  |  | E (Fresh weight inhibition rate<20%) | E (Fresh weight inhibition rate<20%) | A (Fresh weight inhibition rate≥80% to 100%) | E (Fresh weight inhibition rate<20%) | A (Fresh weight inhibition rate≥80% to 100%) | A (Fresh weight inhibition rate≥80% to 100%) | A (Fresh weight inhibition rate≥80% to 100%) | A (Fresh weight inhibition rate≥80% to 100%) | A (Fresh weight inhibition rate≥80% to 100%) | Digitaria sanguinalis, control efficacy grading (fresh weight inhibition rate) (Digitaria sanguinalis [2]; Rate 75 g/ha): A (Fresh weight inhibition rate≥80% to 100%) |
| Cn1ncnc1NC(=O)c1ccc(S(C)(=O)=O)c(S(=O)(=O)C2CCC2)c1Cl [Compound 2-41] |  |  |  | E (Fresh weight inhibition rate<20%) | E (Fresh weight inhibition rate<20%) | E (Fresh weight inhibition rate<20%) | E (Fresh weight inhibition rate<20%) | E (Fresh weight inhibition rate<20%) | E (Fresh weight inhibition rate<20%) | A (Fresh weight inhibition rate≥80% to 100%) |  | A (Fresh weight inhibition rate≥80% to 100%) | A (Fresh weight inhibition rate≥80% to 100%) | A (Fresh weight inhibition rate≥80% to 100%) | A (Fresh weight inhibition rate≥80% to 100%) |  | Echinochloa crusgalli, control efficacy grading (fresh weight inhibition rate) (Echinochloa crusgalli [1]; Rate 75 g/ha): A (Fresh weight inhibition rate≥80% to 100%); Echinochloa crusgalli, control efficacy grading (fresh weight inhibition rate) (Echinochloa crusgalli [1]; Rate 150 g/ha): A (Fresh weight inhibition rate≥80% to 100%) |
| CCC[S+]([O-])c1c(S(C)(=O)=O)ccc(C(=O)Nc2nonc2C)c1Cl (racemic) [Compound 4-2, 2-chloro-N-(4-methyl-1,2,5-oxadiazol-3-yl)-4-(methylsulfonyl)-3-(propylsulfinyl)benzamide] |  | 80 to 100% | 80 to 100% |  |  |  |  | E (Fresh weight inhibition rate<20%) | E (Fresh weight inhibition rate<20%) |  | E (Fresh weight inhibition rate<20%) |  |  |  |  |  | pest or weed control at 150 g/ha (Echinochloa crusgalli [5]): 80 to 100%; pest or weed control at 150 g/ha (Digitaria sanguinalis [6]): 80 to 100%; pest or weed control at 150 g/ha (Eclipta prostrata): 80 to 100%; pest or weed control at 150 g/ha (Cyperus iria): 80 to 100%; pest or weed control at 150 g/ha (Leptochloa chinensis): 80 to 100% |
| Cn1ncnc1NC(=O)c1ccc(S(C)(=O)=O)c(S(=O)(=O)C2CCCC2)c1Cl [Compound 2-46] |  |  |  | E (Fresh weight inhibition rate<20%) | E (Fresh weight inhibition rate<20%) | E (Fresh weight inhibition rate<20%) | E (Fresh weight inhibition rate<20%) | E (Fresh weight inhibition rate<20%) | E (Fresh weight inhibition rate<20%) | A (Fresh weight inhibition rate≥80% to 100%) |  | A (Fresh weight inhibition rate≥80% to 100%) | A (Fresh weight inhibition rate≥80% to 100%) | A (Fresh weight inhibition rate≥80% to 100%) | A (Fresh weight inhibition rate≥80% to 100%) | A (Fresh weight inhibition rate≥80% to 100%) | Echinochloa crusgalli, control efficacy grading (fresh weight inhibition rate) (Echinochloa crusgalli [1]; Rate 75 g/ha): A (Fresh weight inhibition rate≥80% to 100%); Echinochloa crusgalli, control efficacy grading (fresh weight inhibition rate) (Echinochloa crusgalli [1]; Rate 150 g/ha): A (Fresh weight inhibition rate≥80% to 100%) |
| CC(C)S(=O)(=O)c1c(S(C)(=O)=O)ccc(C(=O)Nc2ncnn2C)c1Cl [Compound 2-10, 2-chloro-3-(isopropylsulfonyl)-N-(1-methyl-H-1,2,4-triazol-5-yl)-4-(methylsulfonyl)benzamide] | 80 to 100% | 80 to 100% | 80 to 100% | E (Fresh weight inhibition rate<20%) | E (Fresh weight inhibition rate<20%) | E (Fresh weight inhibition rate<20%) | E (Fresh weight inhibition rate<20%) | E (Fresh weight inhibition rate<20%) | E (Fresh weight inhibition rate<20%) |  |  |  |  |  |  |  | inhibition at 150 g/ha (Echinochloa crusgalli [1]; Rate 150 g/ha): 80 to 100%; pest or weed control at 150 g/ha (Echinochloa crusgalli [5]): 80 to 100%; pest or weed control at 150 g/ha (Digitaria sanguinalis [6]): 80 to 100%; pest or weed control at 150 g/ha (Eclipta prostrata): 80 to 100%; pest or weed control at 150 g/ha (Cyperus iria): 80 to 100%; pest or weed control at 150 g/ha (Leptochloa chinensis): 80 to 100% |
| CCS(=O)(=O)c1c(S(C)(=O)=O)ccc(C(=O)Nc2ncnn2C)c1Cl [CK4, reference compound] | 40 to 60% | 20 to 40% | 40 to 60% | C (Fresh weight inhibition rate≥40% to <60%) | B (Fresh weight inhibition rate≥260% to <80%) | C (Fresh weight inhibition rate≥40% to <60%) | C (Fresh weight inhibition rate≥40% to <60%) | E (Fresh weight inhibition rate<20%) | D (Fresh weight inhibition rate≥20% to <40%) |  |  |  |  |  |  |  |  |
| CCC[S+]([O-])c1c(S(C)(=O)=O)ccc(C(=O)Nc2nonc2C)c1Cl (single isomer, unassigned) [Compound 4-3] |  |  |  |  |  |  |  | E (Fresh weight inhibition rate<20%) | E (Fresh weight inhibition rate<20%) | A (Fresh weight inhibition rate≥80% to 100%) | E (Fresh weight inhibition rate<20%) | A (Fresh weight inhibition rate≥80% to 100%) | A (Fresh weight inhibition rate≥80% to 100%) | A (Fresh weight inhibition rate≥80% to 100%) | A (Fresh weight inhibition rate≥80% to 100%) | A (Fresh weight inhibition rate≥80% to 100%) | Digitaria sanguinalis, control efficacy grading (fresh weight inhibition rate) (Digitaria sanguinalis [2]; Rate 18.75 g/ha): A (Fresh weight inhibition rate≥80% to 100%); Digitaria sanguinalis, control efficacy grading (fresh weight inhibition rate) (Digitaria sanguinalis [2]; Rate 75 g/ha): A (Fresh weight inhibition rate≥80% to 100%) |
